{
  "source": "patent US20040049353A1",
  "about": "“System and method for monitoring water using bivalve mollusks” (priority 2003, published 2004)",
  "system": "mollusks",
  "test": "Exposure of mollusks in the water-monitoring system to toxicant-loaded water; shell gape and Degree of Alarm (DOA)",
  "format": "in vivo",
  "protocol": "Further calibration of the system is performed after one or more mollusk chambers are properly installed. The digital circuitry or computer 39 then monitors the gape of the mollusk during approximately the first three days after installation. From the gape values derived during this period, the computer derives a natural maximum gape value for the individual mollusk. Subsequent calculations based on output from the mollusk chamber 15 are based on the percentage of gape, i.e., the percentage of the maximum gape output value that the presently detected gape output value represents.\nWhen the system 3 contains a number of mollusk chambers 15, the individual mollusk percentage gape data for all of the mollusks of the system is totaled, and the average percentage gape value calculated periodically per sampling interval by computer 38. This mean data value Gi is the variable used as the mollusk output data for determining if toxicants are present in the water being screened.\nIn the present specification, Gi means the current average mollusk gape data, Gi−1 means the most recent earlier mollusk output value, Gi−2 the next earlier mollusk output variable, etc. The oldest of the gape values is Gi−n+1. Preferably, the set of data values Gi−n+1 to Gi are stored in a FIFO (first-in, first-out) stack data structure in the computer doing the analysis. The stack acts as a shift register, shifting earlier data values as the new data value Gi is acquired. Preferably the value of n is 30, and the data values G are acquired every half-second.\nA variable referred to as Degree of Alarm (“DOA”) is derived from the mean mollusk output data using one of a variety of analysis formulae or methods, ranging from simpler models to more complex systems based on neural net technology that can identify the particular toxicant types that are present in the water and causing a reaction by the mollusks.\nAccording to an aspect of the invention, the variance over time of the gape values is one of the best statistical indicators of the pumping of the mollusk. By the term variance, what is meant is a determination of the variability of the gape values from a mean value, which may be determined or expressed using a variety of functions. Particularly preferred, however, is the classical calculation of variance as: [formula]\nwherein V is the mean variance in gape over a recent period of time, preferably 30 seconds, R is the mean regression of the gape over the period (regression herein meaning the slope of the best-fit line through the data values of the time period). M may be the traveling mean as defined above, or may be the mean gape taken over another longer period, preferably about one hour.\nAn implementation of this method is shown by the graphs of FIGS. 7 to 10. Water being screened by a system as described previously was loaded with sulphuric acid, resulting in a drop in pH as shown in the graph of FIG. 7.\nAn implementation of such a DOA method using a Logistic calculation, with a variance factor added for variances over 50, is illustrated by the graphs of FIGS. 12 to 16.\nIn this example, a system as in Example 3 was used, only the toxicant introduced was copper (as aqueous CuSO4), as shown in FIG. 17.",
  "data": [
    {"smiles": "[Cl-].[Na+]", "note": "[chloride, NaCl]", "values": [
      {"measurement": "DOA output", "setting": "Logistic calculation with variance factor for variances over 50, at 0.5 hours, chloride concentration still relatively low", "value": "greater than 5"},
      {"measurement": "raw gape data, decreasing gape over time", "setting": "gradually increasing concentration of chloride (as aqueous NaCl)", "value": "less than 40 % of normal maximum gape"}
    ]},
    {"smiles": "O=S(=O)([O-])[O-].[Cu+2]", "note": "[copper, CuSO4]", "values": [
      {"measurement": "DOA values", "setting": "Logistic calculation with variance factor, out of a possible 10, between 0.5 and 1.0 hours, copper concentration still relatively low", "value": "exceed 8"},
      {"measurement": "gape when DOA exceeded 8", "setting": "copper (as aqueous CuSO4), between 0.5 and 1.0 hours", "value": 50, "unit": "%"}
    ]},
    {"smiles": "O=S(=O)(O)O", "note": "[sulphuric acid]", "values": [
      {"measurement": "DOA values (spike)", "setting": "DOA=(V·|R|)/M, water loaded with sulphuric acid, before 200 minutes", "value": "greater than 100"},
      {"measurement": "average percentage gape of the mollusks", "setting": "water loaded with sulphuric acid (drop in pH), shortly after 200 minutes", "value": "less than 10 % of the normal maximum"},
      {"measurement": "percentage gape when variance spikes", "setting": "water loaded with sulphuric acid, variance over ten most recent values spikes shortly before 200 minutes", "value": 40, "unit": "%"}
    ]}
  ]
}
